{
  "source": "patent US20030125336A1",
  "about": "“Hydrohalide salts of an HIV protease inhibitor” (priority 2001, published 2003)",
  "key": {"wild-type HIV protease": {"molecular_target": "wild-type HIV protease (Human immunodeficiency virus type 1 group M subtype B, UniProt P04585)", "experiment": "biochemical"}, "[1]": {"molecular_target": "HIV protease mutant enzyme Q-60 (Human immunodeficiency virus type 1, UniProt P04585)", "experiment": "inhibition of microbial expressed HIV protease (WO 01/05230), mutant enzyme Q-60", "type": "biochemical"}, "[2]": {"molecular_target": "HIV protease mutant enzyme K-60 (Human immunodeficiency virus type 1, UniProt P04585)", "experiment": "inhibition of microbial expressed HIV protease (WO 01/05230), mutant enzyme K-60", "type": "biochemical"}, "[3]": {"molecular_target": "HIV protease mutant enzyme V-18 (Human immunodeficiency virus type 1, UniProt P04585)", "experiment": "inhibition of microbial expressed HIV protease (WO 01/05230), mutant enzyme V-18", "type": "biochemical"}, "[4]": {"tested_on": "wild-type viral construct", "experiment": "cell spread assay (WO 01/05230), wild-type viral construct", "type": "cell-based, HIV", "excerpt": "(§1) Compound A and its hydrohalide salts are inhibitors of HIV protease, including mutant forms thereof that are resistant to known protease inhibitors."}, "viral construct Q60": {"tested_on": "viral construct Q60", "experiment": "cell spread assay (WO 01/05230), viral construct Q60", "type": "cell-based, HIV", "excerpt": "as §1"}, "viral construct K-60": {"tested_on": "viral construct K-60", "experiment": "cell spread assay (WO 01/05230), viral construct K-60", "type": "cell-based, HIV", "excerpt": "as §1"}, "viral construct V-18": {"tested_on": "viral construct V-18", "experiment": "cell spread assay (WO 01/05230), viral construct V-18", "type": "cell-based, HIV", "excerpt": "as §1"}, "[5]": {"experiment": "solubility in aqueous solutions", "type": "physicochemical", "details": "aqueous solutions including dilute HCl (gastric acid) solutions"}, "[6]": {"experiment": "oral absorption and pharmacokinetics in animal models", "type": "in vivo"}},
  "data": [
    {"smiles": "COc1cncc(-c2cnc(C(C)(C)N3CCN(C[C@@H](O)C[C@@H](Cc4ccccc4)C(=O)N[C@H]4c5ccccc5OC[C@H]4O)[C@H](C(=O)NCC(F)(F)F)C3)o2)c1", "note": "[Compound A, (αR,γS,2S)-N-[(3S,4S)-3,4-dihydro-3-hydroxy-2H-1-benzopyran-4-yl]-y-hydroxy-4-[1-[5-(5-methoxy-3-pyridinyl)-2-oxazolyl]-1-methylethyl]-α-(phenylmethyl)-2-[[(2,2,2-trifluoroethyl)amino]carbonyl]-1-piperazinepentanamide]", "values": [
      {"measurement": "IC50", "setting": "wild-type HIV protease", "result": "< 1", "unit": "nM"},
      {"measurement": "potency compared with indinavir", "setting": "wild-type HIV protease; HIV protease inhibition assay", "result": "significantly more potent"},
      {"measurement": "IC50", "setting": "[1]", "result": "< 5", "unit": "nM"},
      {"measurement": "IC50", "setting": "[2]", "result": "< 5", "unit": "nM"},
      {"measurement": "IC50", "setting": "[3]", "result": "< 5", "unit": "nM"},
      {"measurement": "potency compared with indinavir", "setting": "[4]; cell spread assay", "result": "significantly more potent"},
      {"measurement": "CIC95", "setting": "[4]; wild-type viral construct", "result": "below 50 nM"},
      {"measurement": "CIC95", "setting": "viral construct Q60", "result": "below 125 nM"},
      {"measurement": "CIC95", "setting": "viral construct K-60", "result": "below 125 nM"},
      {"measurement": "CIC95", "setting": "viral construct V-18", "result": "below 125 nM"},
      {"measurement": "solubility", "setting": "[5]", "result": "relatively low solubility"},
      {"measurement": "oral absorption", "setting": "[6]", "result": "poor oral absorption"}
    ]}
  ]
}
